# In ChEMBL document CHEMBL1128948, “Novel thrombin inhibitors that are based on a macrocyclic tripeptide motif” (Bioorg Med Chem Lett, 1996):
# How the values were obtained:
# [1] = target: T1, Prothrombin (Homo sapiens, UniProt P00734); assay: Compound was evaluated for inhibition of human thrombin at a concentration of 50 uM; Not active
# [2] = target: T1, Prothrombin; assay: Inhibition of human thrombin
# [3] = target: T2, Serine protease 1 (Bos taurus, UniProt P00760); assay: Inhibition of bovine trypsin
# T2 sequence (P00760 whole entry): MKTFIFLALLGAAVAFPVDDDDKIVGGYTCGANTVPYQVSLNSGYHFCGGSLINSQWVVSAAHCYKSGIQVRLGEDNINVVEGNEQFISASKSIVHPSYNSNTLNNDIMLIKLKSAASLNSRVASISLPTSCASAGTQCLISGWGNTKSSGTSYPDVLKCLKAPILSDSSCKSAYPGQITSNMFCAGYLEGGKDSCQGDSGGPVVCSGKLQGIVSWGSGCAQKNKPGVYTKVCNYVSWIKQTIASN
SMILES,Ki [2],Ki [3],other results
N=C(N)NCCC[C@H]1NC(=O)[C@H]2CCCN2C(=O)[C@H](CCc2ccccc2)NC(=O)CCCCCCCNC(=O)C1O (stereo not given in full),–,–,Ki [1]: Not Active
COC1C[C@@H]2C(=O)N[C@H](CCCN=C(N)N)C(=O)C(=O)NCCCCCCCC(=O)N[C@@H](Cc3ccccc3)C(=O)N2C1 (stereo not given in full),159 nM,13 nM,–
"N=C(N)NCCC[C@@H]1NC(=O)[C@@H]2CCCN2C(=O)[C@@H](Cc2ccccc2)NC(=O)CCCCCCCCCCNC(=O)C1=O (single isomer, unassigned)",–,25 nM,–
"N=C(N)NCCC[C@H]1NC(=O)[C@H]2CCCN2C(=O)[C@H](Cc2ccccc2)NC(=O)CCCCCCCCCCNC(=O)C1=O (single isomer, unassigned)",15 nM,–,–
"N=C(N)NCCC[C@@H]1NC(=O)[C@@H]2CCCN2C(=O)[C@@H](Cc2ccccc2)NC(=O)CCCCCCCNC(=O)C1=O (single isomer, unassigned)",–,10 nM,–
"N=C(N)NCCC[C@H]1NC(=O)[C@H]2CCCN2C(=O)[C@H](Cc2ccccc2)NC(=O)CCCCCCCNC(=O)C1=O (single isomer, unassigned)",24 nM,–,–
"N=C(N)NCCC[C@@H]1NC(=O)[C@@H]2CCCN2C(=O)[C@@H](Cc2ccccc2)NC(=O)CCCCCNC(=O)[C@@H](CCc2ccccc2)NC(=O)C1=O (single isomer, unassigned)",–,5.2 nM,–
"N=C(N)NCCC[C@H]1NC(=O)[C@H]2CCCN2C(=O)[C@H](Cc2ccccc2)NC(=O)CCCCCNC(=O)[C@H](CCc2ccccc2)NC(=O)C1=O (single isomer, unassigned)",3.1 nM,–,–
"N=C(N)NCCC[C@@H]1NC(=O)[C@@H]2CCCN2C(=O)[C@@H](Cc2ccccc2)NC(=O)CCCCCCCCCNC(=O)C1=O (single isomer, unassigned)",–,2.1 nM,–
"N=C(N)NCCC[C@H]1NC(=O)[C@H]2CCCN2C(=O)[C@H](Cc2ccccc2)NC(=O)CCCCCCCCCNC(=O)C1=O (single isomer, unassigned)",9.9 nM,–,–
"N=C(N)NCCC[C@@H]1NC(=O)[C@@H]2CCCN2C(=O)[C@@H](Cc2ccccc2)NC(=O)CCCCCNC(=O)[C@@H](CC(c2ccccc2)c2ccccc2)NC(=O)C1=O (single isomer, unassigned)",–,2.5 nM,–
"N=C(N)NCCC[C@H]1NC(=O)[C@H]2CCCN2C(=O)[C@H](Cc2ccccc2)NC(=O)CCCCCNC(=O)[C@H](CC(c2ccccc2)c2ccccc2)NC(=O)C1=O (single isomer, unassigned)",5.3 nM,–,–
"N=C(N)NCCC[C@@H]1NC(=O)[C@@H]2CCCCN2C(=O)[C@@H](Cc2ccccc2)NC(=O)CCCCCCCNC(=O)C1=O (single isomer, unassigned)",–,66 nM,–
"N=C(N)NCCC[C@H]1NC(=O)[C@H]2CCCCN2C(=O)[C@H](Cc2ccccc2)NC(=O)CCCCCCCNC(=O)C1=O (single isomer, unassigned)",86 nM,–,–
"N=C(N)NCCC[C@@H]1NC(=O)[C@@H]2CCCN2C(=O)[C@@H](Cc2ccccc2)NC(=O)CCCCCCNC(=O)C1=O (single isomer, unassigned)",–,280 nM,–
"N=C(N)NCCC[C@H]1NC(=O)[C@H]2CCCN2C(=O)[C@H](Cc2ccccc2)NC(=O)CCCCCCNC(=O)C1=O (single isomer, unassigned)",1800 nM,–,–
"N=C(N)NCCC[C@@H]1NC(=O)[C@@H]2CCCN2C(=O)[C@@H](c2ccccc2)NC(=O)CCCCCCCNC(=O)C1=O (single isomer, unassigned)",–,11 nM,–
"N=C(N)NCCC[C@H]1NC(=O)[C@H]2CCCN2C(=O)[C@H](c2ccccc2)NC(=O)CCCCCCCNC(=O)C1=O (single isomer, unassigned)",163 nM,–,–
"N=C(N)NCCC[C@@H]1NC(=O)[C@@H]2CCCN2C(=O)[C@@H](Cc2ccccc2)NC(=O)CCCCCNC(=O)C1=O (single isomer, unassigned)",–,710 nM,–
"N=C(N)NCCC[C@H]1NC(=O)[C@H]2CCCN2C(=O)[C@H](Cc2ccccc2)NC(=O)CCCCCNC(=O)C1=O (single isomer, unassigned)",473 nM,–,–
"N=C(N)NCCC[C@@H]1NC(=O)[C@@H]2CCCN2C(=O)[C@@H](CCc2ccccc2)NC(=O)CCCCCCCNC(=O)C1=O (single isomer, unassigned)",–,14 nM,–
"N=C(N)NCCC[C@H]1NC(=O)[C@H]2CCCN2C(=O)[C@H](CCc2ccccc2)NC(=O)CCCCCCCNC(=O)C1=O (single isomer, unassigned)",20 nM,–,–
N=C(N)NCCC[C@@H]1NC(=O)[C@@H]2CCCN2C(=O)[C@@H](NC=O)CNC(=O)/C=C\[C@@H](Cc2ccc(O)cc2)NC(=O)[C@@H](Cc2ccccc2)NC(=O)C1=O [MACROCYCLIC TRIPEPTIDE MOTIF],–,1 nM,–
N=C(N)NCCC[C@H]1NC(=O)[C@H]2CCCN2C(=O)[C@H](NC=O)CNC(=O)/C=C\[C@@H](Cc2ccc(O)cc2)NC(=O)[C@H](Cc2ccccc2)NC(=O)C1=O [MACROCYCLIC TRIPEPTIDE MOTIF],4.1 nM,–,–
